Test results from US12673947B2 (Cytosinlab Therapeutics Co., Ltd., priority 2020, dated 2026).

Assays:
[1] = target: T1, FLT3 (Homo sapiens, UniProt P36888); assay: FLT3 kinase in vitro inhibitory activity experiment (Caliper mobility shift, conversion rate); type: biochemical; conditions: IC50 class, read-out: Enzyme activity FLT3
T1 construct: purchased Carna 08-145
T1 sequence (P36888 27-993): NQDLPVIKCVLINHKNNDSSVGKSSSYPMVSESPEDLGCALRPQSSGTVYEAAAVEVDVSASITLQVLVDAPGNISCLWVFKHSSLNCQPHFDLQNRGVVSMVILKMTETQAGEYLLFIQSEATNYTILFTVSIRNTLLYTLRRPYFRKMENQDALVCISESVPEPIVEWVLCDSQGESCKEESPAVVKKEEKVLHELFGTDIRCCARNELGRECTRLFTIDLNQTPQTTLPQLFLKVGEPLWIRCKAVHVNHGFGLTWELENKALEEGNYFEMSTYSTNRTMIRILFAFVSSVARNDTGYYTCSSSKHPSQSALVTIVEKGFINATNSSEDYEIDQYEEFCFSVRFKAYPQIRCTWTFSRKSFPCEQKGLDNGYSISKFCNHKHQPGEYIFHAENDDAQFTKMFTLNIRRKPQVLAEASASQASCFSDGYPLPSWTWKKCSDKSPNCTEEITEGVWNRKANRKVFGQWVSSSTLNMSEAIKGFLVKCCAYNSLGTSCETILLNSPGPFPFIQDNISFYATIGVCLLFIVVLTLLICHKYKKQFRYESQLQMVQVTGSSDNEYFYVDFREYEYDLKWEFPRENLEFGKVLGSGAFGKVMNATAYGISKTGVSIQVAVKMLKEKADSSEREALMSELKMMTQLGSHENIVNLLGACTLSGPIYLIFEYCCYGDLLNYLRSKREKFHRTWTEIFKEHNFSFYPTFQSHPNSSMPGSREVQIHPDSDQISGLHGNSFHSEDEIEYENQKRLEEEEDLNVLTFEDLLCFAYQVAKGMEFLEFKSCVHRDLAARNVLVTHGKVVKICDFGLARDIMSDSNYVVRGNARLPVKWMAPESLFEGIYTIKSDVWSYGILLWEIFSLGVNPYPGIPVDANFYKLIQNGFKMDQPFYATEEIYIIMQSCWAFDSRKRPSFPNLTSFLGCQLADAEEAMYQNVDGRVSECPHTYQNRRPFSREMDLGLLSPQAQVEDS
How it was run: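 Tested in single wells as ten 3-fold dilutions of a 1 μM initial stock. Compound and FLT3 stood 10 min at room temperature; ATP with Kinase substrate 2 was then added for 30 min at room temperature and the reaction stopped. Conversion was measured by Caliper mobility shift, and inhibition was normalised to control-well conversion.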

[2] = system: MV4;11 cells; assay: MV4;11 in vitro inhibition of proliferation assay (CellTiter-Glo, 72 hours); type: cell-based; conditions: Homo sapiens, MV4-11, 72 h, IC50 class, read-out: Inhibitory activity of cell proliferation MV4;11
How it was run: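 IC50 came from four-parameter fitting of inhibition rates, based on CellTiter-Glo luminescence after 72 hours at 37° C. Each well held 2000 MV4;11 cells grown in IMDM with 10% serum. Compounds formed a nine-point, threefold DMSO series starting at 10 uM, tested in triplicate at 0.3% final DMSO.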

Structure (SMILES)	IC50 [1]	IC50 [2]
[2H]C([2H])([2H])C([2H])(N1CCC(n2cc(-c3cnc(N)c4nc(CC)c(N[C@@H]5CC[C@H](O)C5)nc34)cn2)CC1)C([2H])([2H])[2H] [Compound 222]	≤ 0.01 µM	≤ 0.01 µM
CCc1nc2c(N)ncc(-c3cnn(C4CCN(C)CC4)c3)c2nc1N[C@H]1CCOC1 [Compound 223]	≤ 0.01 µM	≤ 0.01 µM
CCc1nc2c(N)ncc(-c3cnn(C4CCN(CC)CC4)c3)c2nc1N[C@H]1CCOC1 [Compound 224]	≤ 0.01 µM	≤ 0.01 µM
CCc1nc2c(N)ncc(-c3cnn(C4CCN(C(C)C)CC4)c3)c2nc1N[C@H]1CCOC1 [Compound 225]	≤ 0.01 µM	≤ 0.01 µM
CCc1nc2c(N)ncc(-c3cnn(C4CCN(C(CC)CC)CC4)c3)c2nc1N[C@H]1CCOC1 [Compound 226]	≤ 0.01 µM	≤ 0.01 µM
CCc1nc2c(N)ncc(-c3cnn(C4CCN(C(C)CC)CC4)c3)c2nc1N[C@H]1CCOC1 (stereo partly drawn) [Compound 227]	≤ 0.01 µM	≤ 0.01 µM
CCc1nc2c(N)ncc(-c3cnn(C4CCN(C5CC5)CC4)c3)c2nc1N[C@H]1CCOC1 [Compound 228]	≤ 0.01 µM	0.01 to 0.1 µM
CCc1nc2c(N)ncc(-c3cnn(C4CCN(C(CC)CC)CC4)c3)c2nc1NC1CCOCC1 [Compound 232, 3-Ethyl-8-(1-(1-(pent-3-yl)piperidin-4-yl)-1H-pyrazol-4-yl)-N2-(tetrahydro-2H-pyran-4-yl)pyridino [3,4-b]pyrazine-2,5-diamine]	≤ 0.01 µM	≤ 0.01 µM
CCc1nc2c(N)ncc(-c3cnn(C4CCN(CC(C)(C)O)CC4)c3)c2nc1NC1CCOCC1 [Compound 233]	≤ 0.01 µM	≤ 0.01 µM
CCc1nc2c(N)ncc(-c3cnn(C4CCN(C(C)C)CC4)c3)c2nc1NC1CCOCC1 [Compound 234]	≤ 0.01 µM	≤ 0.01 µM
CCc1nc2c(N)ncc(-c3cnn(C4CCN(C5CCN(CC)CC5)CC4)c3)c2nc1NC1CCOCC1 [Compound 235]	≤ 0.01 µM	≤ 0.01 µM
CCc1nc2c(N)ncc(-c3cnn(C4CCN(C5CCN(C(C)C)CC5)CC4)c3)c2nc1NC1CCOCC1 [Compound 236]	≤ 0.01 µM	0.01 to 0.1 µM
CCc1nc2c(N)ncc(-c3cnn(C4CCN(C5CCOCC5)CC4)c3)c2nc1NC1CCOCC1 [Compound 237]	≤ 0.01 µM	0.01 to 0.1 µM
CCc1nc2c(N)ncc(-c3cnn(C4CCN(C5COC5)CC4)c3)c2nc1NC1CCOCC1 [Compound 238]	≤ 0.01 µM	0.01 to 0.1 µM
CCc1nc2c(N)ncc(-c3cnn(C4CCN(C5CCN(CCO)CC5)CC4)c3)c2nc1NC1CCOCC1 [Compound 239]	≤ 0.01 µM	0.01 to 0.1 µM
CCc1nc2c(N)ncc(-c3cnn(C4CCN(C5CCN(CCOC)CC5)CC4)c3)c2nc1NC1CCOCC1 [Compound 240]	≤ 0.01 µM	0.01 to 0.1 µM
CCc1nc2c(N)ncc(-c3cnn(C4CCN(C5CCN(CC(C)C)CC5)CC4)c3)c2nc1NC1CCOCC1 [Compound 241]	≤ 0.01 µM	0.01 to 0.1 µM
CCc1nc2c(N)ncc(-c3cnn(C4CCN(C5CN(C)C5)CC4)c3)c2nc1NC1CCOCC1 [Compound 242]	≤ 0.01 µM	0.01 to 0.1 µM
CCc1nc2c(N)ncc(-c3cnn(C4CCN(C5CCN(C6CC6)CC5)CC4)c3)c2nc1NC1CCOCC1 [Compound 243]	≤ 0.01 µM	≤ 0.01 µM
CCc1nc2c(N)ncc(-c3cnn(C4CCN(C5CCN(CC)CC5)CC4)c3)c2nc1N[C@H]1CCOC1 [Compound 244]	≤ 0.01 µM	0.01 to 0.1 µM
CCc1nc2c(N)ncc(-c3cnn(C4CCN(C5CCN(CC)CC5)CC4)c3)c2nc1N[C@@H]1CC[C@H](O)C1 [Compound 245]	≤ 0.01 µM	≤ 0.01 µM
CCc1nc2c(N)ncc(-c3cnn(C4CCN(C5CCN(CC)CC5)CC4)c3)c2nc1NC1CCCC(O)C1 (stereo not drawn) [Compound 246, 3-((5-amino-3-ethyl-8-(1-(1′-ethyl-[1,4′-bipiperidine]-4-yl)-1H-pyrazol-4-yl)pyridino[3,4-b]pyrazine-2-yl)amino)cyclohexan-1-ol]	≤ 0.01 µM	≤ 0.01 µM
CCc1nc2c(N)ncc(-c3cnn(C4CCN(C5CCN(C)CC5)CC4)c3)c2nc1NC1CCOC1 (stereo not drawn) [Compound 247]	≤ 0.01 µM	0.01 to 0.1 µM

Structure (SMILES)	IC50 [1]	IC50 [2]
CCc1nc2c(N)ncc(-c3cnn(C4CCN(C5CCN(C)CC5)CC4)c3)c2nc1N[C@H]1CCOC1 [Compound 248]	≤ 0.01 µM	0.01 to 0.1 µM
CCc1nc2c(N)ncc(-c3cnn(C4CCN(C5CCN(C)CC5)CC4)c3)c2nc1N[C@@H]1CC[C@H](O)C1 [Compound 249]	≤ 0.01 µM	≤ 0.01 µM
CCc1nc2c(N)ncc(-c3ccc(N4CCC(N5CCN(C)CC5)CC4)c(OC)c3)c2nc1N[C@@H]1CCOC1 [Compound 251]	≤ 0.01 µM	0.01 to 0.1 µM
CCc1nc2c(N)ncc(-c3ccc(N4CCC(N5CCN(C)CC5)CC4)c(OC)c3)c2nc1N[C@H]1CCOC1 [Compound 252]	≤ 0.01 µM	0.01 to 0.1 µM
CCc1nc2c(N)ncc(-c3ccc(N4CCC(N5CCN(CC)CC5)CC4)c(OC)c3)c2nc1N[C@@H]1CC[C@H](O)C1 [Compound 253]	≤ 0.01 µM	≤ 0.01 µM
CCc1nc2c(N)ncc(-c3ccc(N4CCC(N5CCN(C)CC5)CC4)c(OC)c3)c2nc1N[C@@H]1CCC[C@H](O)C1 [Compound 257]	≤ 0.01 µM	≤ 0.01 µM
CCc1nc2c(N)ncc(-c3cnn(C4CCN(C(C)C)CC4)c3)c2nc1N[C@@H]1CCC[C@H](O)C1 [Compound 260]	≤ 0.01 µM	≤ 0.01 µM
CCc1nc2c(N)ncc(-c3cnn(C4CCN(C)CC4)c3)c2nc1N1CCC(O)C1 (stereo not drawn) [Compound 261]	≤ 0.01 µM	0.01 to 0.1 µM
CCc1nc2c(N)ncc(-c3ccc(N4C[C@@H](C)O[C@@H](C)C4)c(OC)c3)c2nc1N[C@@H]1CC[C@H](O)C1 [Compound 265]	≤ 0.01 µM	0.01 to 0.1 µM
CCc1nc2c(N)ncc(-c3ccc(N4CC5CCC(C4)O5)c(OC)c3)c2nc1N[C@@H]1CC[C@H](O)C1 [Compound 266]	≤ 0.01 µM	0.01 to 0.1 µM
CCc1nc2c(N)ncc(-c3ccc(N4C[C@H](C)O[C@@H](C)C4)c(OC)c3)c2nc1N[C@@H]1CC[C@H](O)C1 [Compound 267]	≤ 0.01 µM	0.01 to 0.1 µM
CCc1nc2c(N)ncc(-c3ccc(N4CCC(N5CCN(C)CC5)CC4)c(C(F)F)c3)c2nc1NC1CCOCC1 [Compound 268]	≤ 0.01 µM	0.01 to 0.1 µM
CCc1nc2c(N)ncc(-c3cnn(-c4ncncc4C)c3)c2nc1N[C@@H]1CC[C@H](O)C1 [Compound 269, (1S,3R)-3-((5-amino-3-ethyl-8-(1-(5-methylpyrimidin-4-yl)-1H-pyrazol-4-yl)pyridino[3,4-b]pyrazin-2-yl)amino)cyclopentan-1-ol]	≤ 0.01 µM	≤ 0.01 µM
CCc1nc2c(N)ncc(-c3cnn(-c4cc(C)nc(C)n4)c3)c2nc1N[C@@H]1CC[C@H](O)C1 [Compound 270]	≤ 0.01 µM	0.01 to 0.1 µM
CCc1nc2c(N)ncc(-c3cnn(-c4cccc(C)n4)c3)c2nc1N[C@@H]1CC[C@H](O)C1 [Compound 271]	≤ 0.01 µM	0.01 to 0.1 µM
CCc1nc2c(N)ncc(-c3cnn(-c4ccnc(C)c4)c3)c2nc1N[C@@H]1CC[C@H](O)C1 [Compound 272]	≤ 0.01 µM	≤ 0.01 µM
CCc1nc2c(N)ncc(-c3cnn(-c4ccn(C(C)C)c(=O)c4)c3)c2nc1N[C@@H]1CC[C@H](O)C1 [Compound 273]	≤ 0.01 µM	≤ 0.01 µM
CCc1nc2c(N)ncc(-c3cnn(-c4ccnc(C(F)(F)F)n4)c3)c2nc1N[C@@H]1CC[C@H](O)C1 [Compound 274]	≤ 0.01 µM	0.01 to 0.1 µM
CCc1nc2c(N)ncc(-c3cnn(-c4ccc(OC(C)C)nc4)c3)c2nc1N[C@@H]1CC[C@H](O)C1 [Compound 275]	≤ 0.01 µM	0.01 to 0.1 µM
CCc1nc2c(N)ncc(-c3cnn(-c4ccc(C(C)(C)O)cn4)c3)c2nc1N[C@@H]1CC[C@H](O)C1 [Compound 276]	≤ 0.01 µM	≤ 0.01 µM
CCc1nc2c(N)ncc(-c3cnn(-c4ccc(C5CCCCC5)cc4)c3)c2nc1N[C@@H]1CC[C@H](O)C1 [Compound 277]	0.01 to 0.1 µM	0.1 to 0.5 µM
CCc1nc2c(N)ncc(-c3cnn(-c4ccc(C5CCNCC5)cc4)c3)c2nc1N[C@@H]1CC[C@H](O)C1 [Compound 278]	≤ 0.01 µM	≤ 0.01 µM
